Assays:
[1] = cited from earlier work
[2] = tested on: Vascular endothelial cells (GM07373A); assay: Fluorescent intensity of vascular endothelial cells injured by hydrogen peroxide plus glucose, 24-wells plate, graphic analysis software method; type: cell-based, cattle; details: for Fluorescent intensity compared with the hydrogen peroxide plus glucose added system: sample further added to hydrogen peroxide plus glucose
Protocol: Vascular endothelial cells (GM07373A) subcultured with 10% FBS added EMEM were separated with a trypsin-EDTA solution. To 1.5 ml of the solution of the cells floated on 10% FBS added EMEM was added 9 ml of 10% FBS added EMEM and the resultant mixture was placed in a laboratory dish having a diameter of 9 cm and pre-cultivation was conducted at 37° C. for 3-4 days under an atmosphere of 5% carbon dioxide. Vascular endothelial cells in the culture broth were separated with a trypsin-EDTA solution and floated on 10% FBS added EMEM. 1 ml of the floated cell solution (number of cell: 0.7-0.9×10^5 cell/ml) was poured into each well of 24-wells plate and the main cultivation was conducted at 37° C. for 2 days under an atmosphere of 5% carbon dioxide. After removal of the culture medium, 0.4% FBS added EMEM was added in an amount of 500 μl per well to make the cells in starved state and cultivation was conducted at 37° C. over a night under an atmosphere of 5% carbon dioxide. A sample solution and 10 μl of an aqueous glucose solution (200 mg/ml) were added and cultivation was conducted at 37° C. for 2 hours under an atmosphere of 5% carbon dioxide. After removal of the culture medium, A Hanks' solution (a product of Nihon Pharmaceutical Co., Ltd.) was added to the wells in the amount of 1 ml per well for twice washing. After removal of the solution, a dye solution containing hydrogen peroxide (or a dye solution not containing hydrogen peroxide) was added in the amount of 300 μl per well and cultivation was conducted at 37° C. for 30 minutes under an atmosphere of 5% carbon dioxide. The dye solution was removed to measure the fluorescent intensity of the cell.
GM07373A is a cattle's aortic vascular endothelial cell strain, “Repository No. GM07373A” purchased from Coriel Human Genetic Cell Repository in U.S.A. The dye solution containing hydrogen peroxide was prepared by mixing 50 μg of the solution of fluorescent pigment (“C-6827”, a product of Molecular Probe Company) dissolved in 90 μl of DMSO with 9 ml of the Hanks' solution and adding 90 μl of 0.3% hydrogen peroxide thereto. Hydrogen peroxide was not added for the control test.
As a sample solution, there were used methanol solutions of astaxanthin (a product of Sigma Company) in 0.053 mg/ml and 0.0053 mg/ml, methanol solutions of α-tocopherol (a product of Wako Pure Chemical Industries, Ltd.) in 0.25 mg/ml and 0.025 mg/ml and methanol solutions of tocotrienol (a product of Sigma Company) in 0.25 mg/ml and 0.025 mg/ml. 10 μl of each of the sample solution was added to 500 μl of the culture medium.
The fluorescent intensity was measured at the optional three places under 100 times magnifications using a Leica stereoscopic fluorescence microscope “MZ FL III” (having a Leica macro fluorescence apparatus having a “GFP” attachment) and a filter set (name): GEP Plant fluorescence (GFP2) (excitation filter: 480/40 nm, absorption filter: 510 nm). Each of the pictures was captured by a CDD camera and converted into gray intensity % to measure the fluorescent intensity. The fluorescent intensity was measured for three places per well and the average value was calculated. Also, 3-4 wells were prepared for each kind of sample.
The system where astaxanthin has added is one where astaxanthin in addition to hydrogen peroxide plus glucose was added. The period of time for pre-cultivation was […] and the number of cells was 0.84×10^5 cell per well.
The tocotrienol or α-tocopherol added system is one where tocotrienol or α-tocopherol in addition to hydrogen peroxide plus glucose was added. The period of time for pre-cultivation was 3 days and the number of cells was 0.89×10^5 cell per well.

[3] = specimen 0.5 μg/ml added in addition to hydrogen peroxide plus glucose
[4] = specimen 5.0 μg/ml added in addition to hydrogen peroxide plus glucose

Row | Compound | Antioxidative action, times as strong as vitamin E ([1]; relative to vitamin E) | Antioxidative action, times as strong as β-carotene ([1]; relative to β-carotene) | Fluorescent intensity (%) ([2]; astaxanthin 0.104 μg/ml added in addition to hydrogen peroxide plus glucose) | Fluorescent intensity (%) ([2]; astaxanthin 1.04 μg/ml added in addition to hydrogen peroxide plus glucose) | Fluorescent intensity compared with the hydrogen peroxide plus glucose added system [2] | Fluorescent intensity (%) [2, 3] | Fluorescent intensity (%) [2, 4] | Antioxidative action, times as strong as tocopherol ([1]; relative to tocopherol)
1 | CC1=C(/C=C/C(C)=C/C=C/C(C)=C/C=C/C=C(C)/C=C/C=C(C)/C=C/C2=C(C)C(=O)C(O)CC2(C)C)C(C)(C)CC(O)C1=O (stereo not drawn) [Astaxanthin, 3,3′-dihydroxy-β,β-carotene-4,4′-dione] | about 1000 times | about 40 times | 2.55% | 1.93% | less fluorescent intensity than the hydrogen peroxide plus glucose added system | – | – | –
2 | Cc1c(C)c2c(c(C)c1O)CC[C@@](C)(CCC[C@H](C)CCC[C@H](C)CCCC(C)C)O2 [α-Tocopherol, α-tocopherol] | – | – | – | – | less fluorescent intensity than the hydrogen peroxide plus glucose added system | 4.74% | 4.32% | –
3 | tocotrienol [Tocotorienol] | – | – | – | – | less fluorescent intensity than the hydrogen peroxide plus glucose added system | 4.35% | 4.40% | about 50 times

Source: patent US20120004297A1, “Agent for alleviating vascular failure” (Naoki HIGASHI, priority 2005, published 2012)
